In patent publication US12559681B2, “Solubilizing agent and solubilizing solution” (NOF CORPORATION, priority 2020, dated 2026):

How the values were obtained:
[1] = Solubility of the hardly water-soluble substance in PBS (statement); conditions: PBS without solubilizing agent
[2] = Solubilization test of cholecalciferol (vitamin D3): turbidity (absorbance at 450 nm) of a mixture of solubilizing solution and cholecalciferol solution; format: physicochemical; conditions: for turbidity: 100 μL + 1 μL cholecalciferol 20 mg/mL in ethanol, absorbance 450 nm minus PBS alone; for turbidity ratio to PBS: cholecalciferol, less than 10% = dissolved
Protocol: Cholecalciferol (vitamin D3) was dissolved in ethanol at a concentration of 20 mg/mL to prepare a cholecalciferol solution. […] The cholecalciferol solution was dispensed at 1 uL/well. The mixture in each well was stirred for 1 min, and the absorbance of the mixture at a wavelength of 450 nm was measured. In addition, the absorbance of PBS alone not containing cholecalciferol at a wavelength of 450 nm was measured. The difference between the absorbance of the mixture of the solubilizing solution and the cholecalciferol solution at a wavelength of 450 nm and the absorbance of PBS alone at a wavelength of 450 nm was taken as “turbidity of a mixture of a solubilizing solution and a cholecalciferol solution”. A smaller turbidity indicates a larger amount of a hardly water-soluble substance dissolved therein.
In the same manner as in the above except that PBS was used instead of the solubilizing solution, “turbidity of a mixture of PBS and a cholecalciferol solution” (that is, difference between the absorbance of a mixture of PBS and a cholecalciferol solution at a wavelength of 450 nm and the absorbance of PBS alone at a wavelength of 450 nm) was calculated.
(§1) As an index for evaluation of whether or not cholecalciferol is dissolved, turbidity ratio to PBS was calculated by the following formula: • turbidity ratio to PBS (%)=100×(turbidity of a mixture of solubilizing solution and cholecalciferol solution)/(turbidity of a mixture of PBS and cholecalciferol solution). When the turbidity ratio to PBS was less than 10%, cholecalciferol was evaluated to have been dissolved.

[3] = Solubilization test of DL-α-tocopherol (vitamin E): turbidity at 450 nm; format: physicochemical; conditions: for turbidity: DL-α-tocopherol 20 mg/mL in ethanol, 1 μL/well, absorbance 450 nm minus PBS alone; for turbidity ratio to PBS: DL-α-tocopherol, less than 10% = dissolved
Protocol: DL-α-tocopherol (vitamin E) was dissolved in ethanol at a concentration of 20 mg/mL to prepare a DL-α-tocopherol solution.
In the same manner as above except that PBS was used instead of the solubilizing solution, “turbidity of a mixture of PBS and a DL-α-tocopherol solution” (that is, difference between the absorbance of a mixture of PBS and a DL-α-tocopherol solution at a wavelength of 450 nm and the absorbance of PBS alone at a wavelength of 450 nm) was calculated.
As an index for evaluation of whether or not DL-α-tocopherol is dissolved, turbidity ratio to PBS was calculated by the following formula: turbidity ratio to PBS (%)=100×(turbidity of a mixture of solubilizing solution and DL-α-tocopherol solution)/(turbidity of a mixture of PBS and DL-x-tocopherol solution). When the turbidity ratio to PBS was less than 10%, DL-α-tocopherol was evaluated to have been dissolved.

[4] = Solubilization test of lauric acid: turbidity at 450 nm; format: physicochemical; conditions: for turbidity: solubilizing agent 5.000% by mass in PBS, lauric acid 100 mg/mL in ethanol, 3 μL/well, absorbance 450 nm minus PBS alone; for turbidity ratio to PBS: solubilizing agent 5.000% by mass, lauric acid, less than 10% = dissolved
Protocol: Lauric acid was dissolved in ethanol at a concentration of 100 mg/mL to prepare a lauric acid solution.
In the same manner as above except that PBS was used instead of the solubilizing solution, “turbidity of a mixture of PBS and a lauric acid solution” (that is, difference between the absorbance of a mixture of PBS and a lauric acid solution at a wavelength of 450 nm and the absorbance of PBS alone at a wavelength of 450 nm) was calculated.
as §1, with “lauric acid” for “cholecalciferol”

[5] = Solubilization test of myristic acid: turbidity at 450 nm; format: physicochemical; conditions: for turbidity: solubilizing agent 5.000% by mass in PBS, myristic acid 100 mg/mL in ethanol, 3 μL/well, absorbance 450 nm minus PBS alone; for turbidity ratio to PBS: solubilizing agent 5.000% by mass, myristic acid, less than 10% = dissolved
Protocol: Myristic acid was dissolved in ethanol at a concentration of 100 mg/mL to prepare a myristic acid solution.
In the same manner as above except that PBS was used instead of the solubilizing solution, “turbidity of a mixture of PBS and a myristic acid solution” (that is, difference between the absorbance of a mixture of PBS and a myristic acid solution at a wavelength of 450 nm and the absorbance of PBS alone at a wavelength of 450 nm) was calculated.
as §1, with “myristic acid” for “cholecalciferol”

[6] = Solubilization test of hydrocortisone: turbidity at 450 nm; format: physicochemical; conditions: for turbidity: solubilizing agent 0.050% by mass in PBS, hydrocortisone 20 mg/mL in ethanol, 125 μL/well, absorbance 450 nm minus PBS alone; for turbidity ratio to PBS: solubilizing agent 0.050% by mass, hydrocortisone, less than 10% = dissolved
Protocol: Hydrocortisone was dissolved in ethanol at a concentration of 20 mg/mL to prepare a hydrocortisone solution.
In the same manner as above except that PBS was used instead of the solubilizing solution, “turbidity of a mixture of PBS and a hydrocortisone solution” (that is, difference between the absorbance of a mixture of PBS and a hydrocortisone solution at a wavelength of 450 nm and the absorbance of PBS alone at a wavelength of 450 nm) was measured.

[7] = solubilizing agent 0.025% by mass in PBS
[8] = solubilizing agent 0.025% by mass
[9] = solubilizing agent 0.050% by mass in PBS
[10] = solubilizing agent 0.050% by mass

Row | solubility in PBS [1] | Molecule | turbidity [2, 7] | turbidity ratio to PBS [2, 8] | turbidity [2, 9] | turbidity ratio to PBS [2, 10] | turbidity [3, 9] | turbidity ratio to PBS [3, 10] | further results
1 | insoluble | Cc1c(C)c2c(c(C)c1O)CCC(C)(CCCC(C)CCCC(C)CCCC(C)C)O2 (racemic) [DL-α-tocopherol, reference compound] | – | – | – | – | – | – | –
2 | insoluble | CCCCCCCCCCCC(=O)O [Lauric acid] | – | – | – | – | – | – | –
3 | insoluble | CCCCCCCCCCCCCC(=O)O [Myristic acid] | – | – | – | – | – | – | –
4 | – | CCCCCCCCSCC(C)C(=O)OCCOP(=O)([O-])OCC[N+](C)(C)C (centres unmarked) [Synthetic Example 1, 2-[3-(octylsulfanyl)-2-methylpropionyloxy]ethyl-2-(trimethylammonio)ethyl phosphate] | 0.0229 | 9% | 0.0132 | 5% | 0.0000 | 0% | turbidity [3, 7]: 0.0150; turbidity ratio to PBS [3, 8]: 9%; turbidity [4]: 0.0000; turbidity ratio to PBS [4]: 0%; turbidity ratio to PBS ([4]; listed as Example 4-1): less than 10%; turbidity [5]: 0.0231; turbidity ratio to PBS [5]: 5%; turbidity ratio to PBS ([5]; listed as Example 5-1): less than 10%
5 | – | CCCCCCCCCCCCSCC(C)C(=O)OCCOP(=O)([O-])OCC[N+](C)(C)C (centres unmarked) [Synthetic Example 2, 2-[3-(dodecylsulfanyl)-2-methylpropionyloxy]ethyl-2-(trimethylammonio)ethyl phosphate] | 0.0080 | 3% | 0.0009 | 0% | 0.0153 | 9% | –
6 | – | CCCCCCCCCCCCCCCCSCC(C)C(=O)OCCOP(=O)([O-])OCC[N+](C)(C)C (centres unmarked) [Synthetic Example 3, 2-[3-(hexadecylsulfanyl)-2-methylpropionyloxy]ethyl-2-(trimethylammonio)ethyl phosphate] | 0.0231 | 9% | 0.0139 | 6% | – | – | turbidity [6]: 0.0015; turbidity ratio to PBS [6]: 3%; turbidity ratio to PBS ([6]; listed as Example 3-3): less than 10%
7 | – | Triton X-100 [reference compound] | – | – | 0.0331 | 13% | 0.2573 | 147% | turbidity ratio to PBS ([3]; solubilizing agent 0.050% by mass, listed as Comparative Example 2-2-1): not less than 10%; turbidity [6]: 0.0910; turbidity ratio to PBS [6]: 205%; turbidity [4]: 0.0002; turbidity ratio to PBS [4]: 0%; turbidity [5]: 0.0601; turbidity ratio to PBS [5]: 14%
